Data on one molecule can be found in EP1596818B1, “COSMETIC COMPOSITION WITH A WHITENING EFFECT, METHOD FOR THE PRODUCTION AND USE THEREOF” (Riemschneider, Randolph, Dr. Dr. Prof., priority 2003, dated 2004).

Where two headings read alike, the source gives them in different places.

In data set [1] the test system is B16-Melanom-Zellen von Mäusen. Description: B16 melanoma cell test for whitening effect (inhibition of melanin production). The format is cell-based. Conditions: for Anzahl der Zellen: lyophilisate from aqueous phase of the hand cream, 6 days culture. As for the experimental part: (§1) Nach Zerstörung der Emulsion der Handcreme durch Wasserzusatz und Erhitzen auf 80 °C wurde die wässrige Phase abgetrennt, im Vakuum eingeengt und der Zentrifugenrückstand wurde gefriergetrocknet.
(§2) Definierte Mengen des dabei erhaltenen Lyophilisats wurden in entionisiertem Wasser gelöst und nach den Angaben in dem weiter unten beschriebenen Testverfahren behandelt. Tabelle 1
(§3) Die grobe Beurteilung der Whitening-Effekte wurde vorgenommen nach der Abtrennung der Zellen unter Verwendung von 6 ml EDTA-Lösung und Auszählen der Zellen, z.B. Tabelle 1 und Tabelle 3 (Beurteilungskriterien auf S. 15).
(§4) • 1. Herstellung und Sterilisierung eines Test-Kulturmediums • 2. Herstellung einer Zellenflotationslösung • 3. Einstellung des pH-Wertes des Kulturmediums • 4. Ausstreichen des Kulturmediums auf einer Petrischale • 5. Einimpfen von B16-Melanom-Zellen von Mäusen • 6. […] Auswechseln des Kulturmediums am 3. Tag • 8.

Test in data set [2]: as above
The format is cell-based, Mäusen. Conditions: mouse, b16 melanoma cells, cell number relative to control (1,00), read-out: Relativwert. As for the experimental part: as §1, §2, §3, §4

The next data set deals with Tyrosinase. As to the kind of experiment: Tyrosinase inhibitor rate. The format is biochemical.
The nature of data set [3]: Preclinical test of local tolerability. From the text: Zusammenfassung: der Wirkstoff Methyl-ADAPD ist im Patch-Test auf allergisierendes Potenzial geprüft worden. In einer präklinischen Prüfung wurde die lokale Verträglichkeit abgeklärt.
The mark [4] stands for this setting: Wirkstoff-Gehalt 1,25 mg/ml Lösung.
The mark [5] stands for this setting: Wirkstoff-Gehalt 2,5 mg/ml Lösung.

For `CC(=O)C1C(=O)C=C(C)OC1=O` (stereo not drawn) [Methyl-ADAPD], the Whitening-Effekt entry in data set [1] (setting [4]) is “+”; in data set [1] (setting [5]) it was “+++”. Further, the “Anzahl der Zellen” value in data set [1] (setting [4]) is given as 82x10^4; in data set [1] (setting [5]), 79x10^4. In addition, the viability at 144 h in data set [2] (setting [4]) was 92%; in data set [2] (setting [5]), 86%. Further, the values for the Tyrosinase-Inhibitorrate in the data set on Tyrosinase (Wirkstoff-Gehalt 0,5 mg/ml Lösung) and in the data set on Tyrosinase (Wirkstoff-Gehalt 5 mg/ml Lösung) were 84% and 99,1%, respectively. Besides, the “lokale Verträglichkeit” value in data set [3] is “keine Bedenken”.
